According to the OligoGym collection:
“And” between values parts separate entries of the source, which are not always exact repeats. Equal values may be shown once. After the bases stand the sugars from the 5' end (letter, count) and the backbone: PS all phosphorothioate, else s phosphorothioate and o phosphodiester by linkage. Methylation of C is not given here. e = 2'-O-(2-methoxyethyl) (MOE); k = constrained ethyl (cEt); d = 2'-deoxy (DNA)

Molecular target: IRF4
Conditions: ASO

| Sequence | target mRNA inhibition (SK-MEL-28, 4 µM) | target mRNA inhibition (MM.1R, 1 µM) | also measured |
| --- | --- | --- | --- |
| CTTCACTGTTAGCTAC (sugars k3 d10 k3, PS) | 51% | – | – |
| GGCCTCCCCAAGGCTA (sugars k3 d10 k3, PS) | 18% | – | – |
| CCCAATAGTCTAGCTG (sugars k3 d10 k3, PS) | 56% | – | – |
| CGGAGGTTCCTTGAGG (sugars k3 d10 k3, PS) | – | 42% and 52% | target mRNA inhibition (H929, 0.04 µM): 5% and 10%; target mRNA inhibition (KMS11, 0.2 µM): 28% and 21%; target mRNA inhibition (MM.1R, 0.0625 µM): 6%; target mRNA inhibition (MM.1R, 0.25 µM): 29%; target mRNA inhibition (MM.1R, 4 µM): 64% |
| TACGAGCACATGTCAA (sugars k3 d10 k3, PS) | 36% | – | – |
| GTTTTAAGAGGCGACT (sugars k3 d10 k3, PS) | 33% | – | – |
| GATTTCCGGGTGTGGC (sugars k3 d10 k3, PS) | – | – | target mRNA inhibition (MM.1R, 0.0625 µM): 14%; target mRNA inhibition (MM.1R, 0.25 µM): -11%; target mRNA inhibition (MM.1R, 4 µM): 33% |
| TGCTAAAGGAGTGCAG (sugars k3 d10 k3, PS) | – | -17% | – |
| GCCCATGAGTTGAAAG (sugars k3 d10 k3, PS) | 32% | – | – |
| GGGCAACTTTAACCAT (sugars k3 d10 k3, PS) | 8% | – | – |
| CGCTCATGCCGAACTC (sugars k3 d10 k3, PS) | 11% | – | – |
| AGCTTGATAAAGGCTG (sugars kkdddddddddkekek, PS) | – | 16% | – |
| ACGCACGGAGAGGGCG (sugars k3 d10 k3, PS) | 1% | – | – |
| TGCTTGAGGTTTTCCT (sugars kkdddddddddekeke, PS) | – | 45% | – |
| CTTATTATTTATGAGC (sugars k3 d10 k3, PS) | 37% | – | – |
| TAAGAGGCGACTGCTG (sugars k3 d10 k3, PS) | -45% | – | – |
| TTCCATGCTTGTCTCG (sugars k3 d10 k3, PS) | 62% | – | – |
| CCCCTCTCCAGGTGGC (sugars k4 d8 k4, PS) | -1% | – | – |
| AAGCATAGAGTCACCT (sugars k3 d10 k3, PS) | 36% | – | – |
| GCTAAACTCCTAAGTA (sugars k3 d10 k3, PS) | 30% | – | – |
| CTCCACTGTTAAAGCA (sugars k3 d10 k3, PS) | 52% | – | – |
| ACCACGCCCCTCTCCA (sugars k3 d10 k3, PS) | 9% | – | – |
| TGTGTATTACTCTTAG (sugars kkdddddddddkdkdk, PS) | – | 81% and 71% and 72% | target mRNA inhibition (H929, 0.04 µM): 40% and 47%; target mRNA inhibition (KMS11, 0.2 µM): 62% and 74%; target mRNA inhibition (MM.1R, 0.0625 µM): 54%; target mRNA inhibition (MM.1R, 0.25 µM): 62%; target mRNA inhibition (MM.1R, 4 µM): 91% |
| GTAATCTTCTGGATTG (sugars k3 d10 k3, PS) | 29% | – | – |
| GGAACGAAGAGCAGGG (sugars k3 d10 k3, PS) | – | 12% | – |

| Sequence | target mRNA inhibition (SK-MEL-28, 4 µM) | target mRNA inhibition (MM.1R, 1 µM) | also measured |
| --- | --- | --- | --- |
| AGTCTAGCTGGGTTTT (sugars k3 d10 k3, PS) | 63% | – | – |
| GACAGTGACTTGCATC (sugars kdddddddddkekeke, PS) | – | 0% | – |
| AGCTGAGGGCAGCGGT (sugars k3 d10 k3, PS) | -7% | – | – |
| TAAATTCTAGTTTGCC (sugars k3 d10 k3, PS) | 68% | – | – |
| TGCTAGATTCTCCCTG (sugars k3 d10 k3, PS) | 33% | – | – |
| TTAATCTGTCTAAACC (sugars k3 d10 k3, PS) | 16% | – | – |
| TCTGATCCGGACTCTC (sugars k3 d10 k3, PS) | 41% | – | – |
| CTTCCAAGACAGCTTC (sugars k3 d10 k3, PS) | 63% | – | – |
| TCAAAAGTCTTAAGGG (sugars k3 d10 k3, PS) | 7% | – | – |
| ACCGAACACACCAGGT (sugars k3 d10 k3, PS) | – | -14% | – |
| GCTGTTTATTTCCTAC (sugars k3 d10 k3, PS) | 66% | – | – |
| ACATTGGTACGGGATT (sugars k3 d10 k3, PS) | – | 2% | – |
| GTTAACAATATGCTTC (sugars k3 d10 k3, PS) | 25% | – | – |
| TAGAATGAGAGGTGTC (sugars k3 d10 k3, PS) | 29% | – | – |
| TTAGAATGCATAACAC (sugars k3 d10 k3, PS) | 44% | – | – |
| TGAGATGCGGAGGTTC (sugars k3 d10 k3, PS) | – | 33% and 27% | – |
| TTTACACCGTTGCTCA (sugars k3 d10 k3, PS) | – | 3% | – |
| GGCACATCAATGTTTT (sugars kdddddddddkekeke, PS) | – | 9% and 6% | – |
| GTCCCCTCTACTTCAG (sugars k3 d10 k3, PS) | 41% | – | – |
| CCTCAGTTTGTGAAGC (sugars kkkddddddddkekek, PS) | – | 3% | – |
| ATCTGATCCGGACTCT (sugars k3 d10 k3, PS) | 9% | – | – |
| AGACCAATTTATGCCA (sugars k3 d10 k3, PS) | – | 7% | – |
| GCAGTGATGTCAGGTT (sugars kkdddddddddkekek, PS) | – | 69% | target mRNA inhibition (MM.1R, 0.074 µM): 14%; target mRNA inhibition (MM.1R, 0.222 µM): 37%; target mRNA inhibition (MM.1R, 0.666 µM): 60%; target mRNA inhibition (MM.1R, 2 µM): 81% |
| GAGTAAACTTGGCTGT (sugars k3 d10 k3, PS) | 38% | – | – |
| GCGGGCACAGCCGTCC (sugars k3 d10 k3, PS) | – | -21% | – |

| Sequence | target mRNA inhibition (SK-MEL-28, 4 µM) | target mRNA inhibition (MM.1R, 1 µM) | also measured |
| --- | --- | --- | --- |
| TTATGTTAGCCAATTC (sugars kkdddddddddkekek, PS) | – | 11% and 19% | – |
| ACTGTTACCGATGCTT (sugars k2 d9 e3 k2, PS) | – | 27% and 34% | – |
| AGTATGAGAAACGGCC (sugars kkdddddddddkekek, PS) | – | 3% | – |
| ATACATTTCTTTTACG (sugars k3 d10 k3, PS) | 22% | – | – |
| TCCACCCTCCGTCTCA (sugars k3 d10 k3, PS) | – | -9% | – |
| AGGAAGCACTGGCATT (sugars k3 d10 k3, PS) | 59% | – | – |
| CATCCTGCTTCCAGTG (sugars k3 d10 k3, PS) | 30% | – | – |
| CATAGCATTATCTACC (sugars k3 d10 k3, PS) | 43% | – | – |
| TGGACACTTTTAGAGA (sugars k3 d10 k3, PS) | 72% | – | – |
| CTATAGTGTTCCAGGA (sugars kkddddddddddkeke, PS) | – | 36% | – |
| CGTGTGCTTGCCAAGC (sugars k3 d10 k3, PS) | – | 67% and 66% and 56% | target mRNA inhibition (MM.1R, 0.0625 µM): -3%; target mRNA inhibition (MM.1R, 0.25 µM): 31%; target mRNA inhibition (MM.1R, 4 µM): 81% |
| GTACTTGCCGCTGTCG (sugars k3 d10 k3, PS) | 27% | – | – |
| GCACGAGGAAGCATAG (sugars k3 d10 k3, PS) | 58% | – | – |
| CAAATGACTTAGTCAG (sugars k3 d10 k3, PS) | 55% | – | – |
| CTGGTTCGCGCTCCGG (sugars k3 d10 k3, PS) | 7% | – | – |
| TGAGACTACACCTACA (sugars k3 d10 k3, PS) | 19% | – | – |
| GAGCGAAGGGTAAGGC (sugars k3 d10 k3, PS) | 38% | – | – |
| TCCTGTAGTATGAGAA (sugars k3 d10 k3, PS) | – | 22% | – |
| TCACGAAACACAGTCT (sugars k3 d10 k3, PS) | 68% | – | – |
| AAACGCAGAGCCAGTA (sugars k3 d10 k3, PS) | 37% | – | – |
| AGTTCATGTAAAGTCT (sugars kkdddddddddkekek, PS) | – | 42% and 31% | – |
| AAGACTATTAGATAAG (sugars k3 d10 k3, PS) | 22% | – | – |
| AACAAATTAAAGAGCG (sugars k3 d10 k3, PS) | 23% | – | – |
| TCAAACACTAATACCT (sugars k3 d10 k3, PS) | 25% | – | – |
| CAGTGACTTGCATCCA (sugars k3 d10 k3, PS) | – | 53% and 38% | target mRNA inhibition (MM.1R, 0.0625 µM): 40% and 20%; target mRNA inhibition (MM.1R, 0.25 µM): 43% and 24%; target mRNA inhibition (MM.1R, 4 µM): 75% and 61% |

| Sequence | target mRNA inhibition (SK-MEL-28, 4 µM) | target mRNA inhibition (MM.1R, 1 µM) | also measured |
| --- | --- | --- | --- |
| AAACCAGTACAGTCCA (sugars k3 d10 k3, PS) | – | -23% | – |
| TTCAGACAGATGCAGC (sugars k3 d10 k3, PS) | 62% | – | – |
| TAGGTATACTTAAGCA (sugars k3 d10 k3, PS) | 79% | – | – |
| GCCTGAGTTACCGCAT (sugars k3 d10 k3, PS) | 70% | 13% | target mRNA inhibition (MM.1R, 0.0625 µM): -1%; target mRNA inhibition (MM.1R, 0.074 µM): -3%; target mRNA inhibition (MM.1R, 0.222 µM): -5%; target mRNA inhibition (MM.1R, 0.25 µM): 0%; target mRNA inhibition (MM.1R, 0.666 µM): -9%; target mRNA inhibition (MM.1R, 2 µM): 5%; target mRNA inhibition (MM.1R, 4 µM): 41% |
| AGTGATGTCAGGTTTT (sugars e1 k2 d9 k2 e2, PS) | – | 39% | – |
| AGTGATGTCAGGTTTT (sugars kddddddddddkekek, PS) | – | 25% | – |
| ATAGTAAGTTCTAGTC (sugars k3 d10 k3, PS) | – | 11% | – |
| TAGTTTAAGGGTTACG (sugars k3 d10 k3, PS) | 49% | – | – |
| AATCATGATATTAGAG (sugars k3 d10 k3, PS) | 31% | – | – |
| TGACAGCCGAAGCATT (sugars k3 d10 k3, PS) | 38% | – | – |
| ACTTTTAGAGAGGAGA (sugars kkkdddddddddkeke, PS) | – | 41% | – |
| CTTTTACCCACCAAAG (sugars k3 d10 k3, PS) | 18% | – | – |
| CATTGGAGGAGGGTTG (sugars k3 d10 k3, PS) | -2% | – | – |
| GATAGGAAGCACTGGC (sugars k3 d10 k3, PS) | 62% | – | – |
| AGGCTAATCAGAATGG (sugars k3 d10 k3, PS) | 42% | – | – |
| TGTTACCGATGCTTCA (sugars kddddddddddkekek, PS) | – | 26% and 18% | – |
| TTATATACTGGTTGGT (sugars kkdddddddddkekek, PS) | – | 50% | – |
| ACGAACGCGCAAAACC (sugars k3 d10 k3, PS) | 6% | – | – |
| TGGTTGGCTGGTCTTT (sugars kkddddddddddkeke, PS) | – | 80% and 68% | target mRNA inhibition (MM.1R, 0.0625 µM): 41%; target mRNA inhibition (MM.1R, 0.25 µM): 56%; target mRNA inhibition (MM.1R, 4 µM): 85% |
| CGACAGCATAGCATTA (sugars k3 d10 k3, PS) | 75% | – | – |
| GTTCCAGGAGATATTA (sugars k3 d10 k3, PS) | 52% | – | – |
| GGCCCTGTCAAACTAT (sugars k3 d10 k3, PS) | 40% | – | – |
